{"source": "patent US7196063B1", "about": "“Peptides and pharmaceutical compositions comprising same” (NST NeuroSurvival Technologies Ltd., priority 1999, dated 2007)", "tested_on": "apoptotic hepatocytes", "assay_type": "in vivo, mice", "details": "mouse, in vivo", "description": "Massive hepatic apoptosis can be induced within 1–2 hr in mice following intravenous injection of anti-Fas antibody (Ogasawara J. et al., 1993, Nature, 364, 806–809). […] Five-weeks-old male BALB/c mice were injected intravenously with 10 μg/animal of purified hamster anti-Fas mAb (Jo2, PharMingen, San Diego, Calif.) using the model described by Ogasawara et. al. (Nature, 1993, 364, 806–809). […] Injections were performed at different time intervals between 5 min–2 hr after antibody treatment. […] All animals were killed 2 hr after administration of antibody followed by organ removal. Heart, lung and liver were collected. Liver were sectioned transversely across the mid-portion of each lobe; organs were fixed in phosphate-buffered formalin for histological and immunohisto-chemical analyses.\nFormalin fixed paraffin-embedded tissues were sectioned (5 μm) for staining with Hematoxylin/Eosin or other techniques. Endogenous peroxidase activity was blocked by incubation with 3% H2O2.\nAfter washing with PBS, staining was developed with 3,3-diaminobenzidine tetrahydrochloride (DAB), and counterstained with Hematoxylin.\nLiver sections from different lobes were used for detection of stained apoptotic cells compared to normal cells. Using light microscopy (×400), twenty fields of stained cells were evaluated. A ratio between the number of stained apoptotic hepatocytes versus stained normal hepatocytes in the field was defined. The stained cell's score (%) corresponds to the mean of the values for the twenty evaluated fields.\nThe percentage of apoptotic cells in the fields was estimated by evaluating parallel sections stained with Hematoxylin/Eosin. Analysis was performed blindly, since the pathologist performing the histological evaluation was unaware of the assignment of mice to the treatment or control group.\nTo quantitate the microscopic examination of the pharmacokinetics studies, the number of stained cells from 20 microscopic fields was counted.", "data": [{"substance": "Myristate-KVSFFCKNKEKKC-K (SEQ ID NO:1) (biotin) [NST513]", "values": [{"measurement": "increase in number of stained apoptotic cells as compared to non specific staining of non-apoptotic cells", "value": 3, "unit": "times"}, {"measurement": "ratio of apoptotic stained cells vs non-apoptotic cells", "value": 5, "unit": "fold"}, {"measurement": "staining of normal hepatocytes", "value": "never observed"}, {"measurement": "staining of apoptotic hepatocytes in anti-Fas treated mice", "setting": "iv", "value": "observed at cytoplasma and cytoplasmatic border of apoptotic hepatocytes"}]}]}
